In data set [1] the test system is morning glory (variety: murasaki). The note with it: from Japanese Patent Publication (A) No. 11-29410; cited from earlier work.
For data set [2] the test system is unchanged. Briefly: Activity in increasing flower budding of morning glory (spray, dark treatment, flower buds counted on the 14th day). The data set is classed as in vivo. As for the experimental part:
Seeds of morning glory (variety: murasaki) (9 g) were subjected to concentrated sulfuric acid treatment for 20 minutes, and then allowed to stand under water flow overnight.
Subsequently, the seeds were placed on wet sea sand such that the emerging sites of the roots were directed upward for 24 hours, to thereby produce roots. The seeds having roots were planted in sea sand at a position 1 cm below the surface of the sand, and then cultured under continuous light irradiation (for about five days).
The entire plant bodies of the morning glory having leaves produced through this culture were transferred into a culture solution KNO3(250 mg), NH4NO3 (250 mg), KH2PO4 (250 mg), MgSO4.7H2O (250 mg), MnSO4.4H2O (1 mg), Fe-citrate n-hydrate (6 mg), H3BO3 (2 mg), CuSO4.5H2O (0.1 mg), ZeSO4.7H2O (0.2 mg), Na2MoO4.2H2O (0.2 mg), Ca(H2PO4)2.2H2O (250 mg) in distilled water (1,000 mL)].
Water or a 0.01, 0.1, 1 or 100 μM specific α-ketol fatty acid (1A) aqueous solution was sprayed to the cultured system in an amount of 0.1 mL/plant, then the plants were treated by darkness (for 13.5 hours).
Thereafter, the morning glory was grown under continuous light irradiation at 25° C. for 14 days, and on the 14th day the number of the flower buds was measured.
The results of eight specimens of morning glory were averaged.

A short description of data set [3]: Evaluation of stability: decomposition over time of the diluted aqueous solution, analyzed by HPLC. The data set is classed as physicochemical. The settings on record: 16 mM ethanol solution diluted by water 30-fold, extended standing, HPLC (FIG. 3). Here is the method:
The stability of the specific α-ketol fatty acid derivative (1A) was evaluated as follows. A 16 mM ethanol solution of the derivative (1A) was diluted by water 30-fold. This diluted solution was allowed to stand for an extended period at each of the temperatures of 4° C., 25° C. and 50° C. The extent of decomposition over time was analyzed by HPLC (column: CAPCELL PAK C-18 UG120, 4.6×250 mm, solvent: 50% acetonitrile+0.1% trifluoroacetic acid, flow rate: 1 ml/min, wavelength: 210 nm). For comparison, a solution prepared by similarly diluting the specific α-ketol fatty acid derivative (2A) was allowed to stand for an extended period at each of 25° C. and 50° C. The extent of decomposition was similarly investigated.

Where two headings read alike, the source gives them in different places.

Consider `CC/C=C\C/C=C\CC(=O)C(O)CCCCCCCC(=O)O` (stereo not shown) [compound (2A), 9-hydroxy-10-oxo-12(Z),15(Z)-octadecadienoic acid], for which the “optimum concentration for flower bud formation” value in data set [1] is 100 µM.
In the case of `CCC(O)C(O)C/C=C\CC(=O)C(O)CCCCCCCC(=O)O` (stereo not shown) [compound (1A), 9,15,16-trihydroxy-10-oxo-12(Z)-octadecenoic acid], the “optimum concentration relative to the optimum concentration of (2A)” value in data set [2] (1 μM versus 100 μM) is listed as 1/100. The “number of flower buds formed, increase” value in data set [2] (0.01-100 μM aqueous solution sprayed 0.1 mL/plant, darkness 13.5 hours, counted on 14th day, average of eight specimens, water 1.25 buds/plant (FIG. 2)) is given as not below 200%. In addition, the “optimum concentration for flower bud formation” value in data set [2] (morning glory, sprayed aqueous solution, FIG. 2) worked out at 1 µM. The “stability at 4° C. compared with 25° C. and 50° C.” value in data set [3] (4° C.) is listed as “far superior in stability”. The “stability compared with (2A)” value in data set [3] (25° C.) and in data set [3] (50° C.) was “superior in stability” throughout.
